Assays:
[1] = test system: mouse glomerular endothelial cells (mGEnC); experiment: Uptake of fluorescein-labelled peptides by mGEnC (flow cytometry); assay type: cell-based; settings: different concentrations, 20 minutes at 37 °C, FIG. 1A
Method: (§1) Conditionally immortalized mouse glomerular endothelial cells (mGEnC) were cultured as previously described (Rops et al. Kidney Int. 2004; 66 (6): 2193-201). HeLa cells were employed as a frequently used model cell line and were cultured in DMEM/F12 medium containing 10% fetal calf serum (FCS). For studying uptake, cells were incubated in their respective medium with 10% FCS containing fluorescein-labelled peptides at the indicated concentrations for 20 minutes at 37 °C. In some cases, cells were activated for 16 hours with 10 ng/ml mouse TNFα (Sigma), or co-incubated with Alexa Fluor 633-labeled transferrin (Invitrogen Molecular Probes). Subsequently, cells were washed with PBS and analysed using confocal laser-scanning microscopy on a TCS SP5 confocal microscope (Leica Microsystems), or detached by trypsin/EDTA and analysed on a FACSCalibur Flow cytometer (BD Biosciences) by measuring 20,000 cells.

HeLa cells = experiment: Uptake of fluorescein-labelled peptides by HeLa cells (flow cytometry); assay type: cell-based, human; settings: FIG. 1B
Method: as §1

[2] = test system: heparan sulphate on mGEnC; experiment: Peptide uptake by mGEnC after removal of heparan sulphate (heparinases); assay type: cell-based, mouse; settings: 5 μM, FIG. 1D
Method: (D) Digestion of heparan sulphate from the cell surface has a limited effect on the uptake of lactoferrin-derived peptides (5 μM). Percentage of uptake for heparan sulphate-cleaved compared to undigested cells is shown.
as §1
In order to further substantiate that uptake of hLF occurred by a mechanism different of the one typically observed for CPPs, we addressed the role of heparan sulphate proteoglycans (HSPGs).

mGEnC treated with TNFα = experiment: Uptake by mGEnC after activation with TNFα; assay type: cell-based; settings: 10 ng/ml mouse TNFα 16 hours
Method: as §1
(§2) Conditionally immortalized mouse glomerular endothelial cells (mGEnC) were cultured as previously described (Rops et al. Kidney Int. 2004; 66 (6): 2193-201). Cells were incubated in their respective medium with 10% FCS containing fluorescein-labelled peptides at 5 μM for 20 minutes at 37 °C. In some cases, cells were activated for 16 hours with 10 ng/ml mouse TNFα (Sigma), or co-incubated with 100 μg/ml Alexa Fluor 633-labeled transferrin (Invitrogen Molecular Probes). Pre-treatment with ITLN-1 or control siPool siRNA (siTools Biotech) was performed according to the manufacturer's protocol. Subsequently, cells were detached with trypsin/EDTA and analysed by flow cytometry on a FACSCalibur Flow cytometer (BD Biosciences). For immunostaining, cells or 5-μm cryosections of mouse kidney were fixed for 10 minutes with 4% paraformaldehyde, and in the indicated cases permeabilized with 0.3% Triton X-100 in PBS. Subsequently, cells and cryosections were stained for 1 hour with anti-intelectin-1 (R&D Systems) or anti-LRP-1 (Abcam) antibodies, and after washing incubated for 1 hour with the appropriate Alexa Fluor-labelled secondary antibody (Invitrogen Molecular Probes). Cells and cryosections were analyzed by confocal laser-Scanning microscopy was performed using a TCS SP5 confocal microscope (Leica Microsystems).

mGEnC [3] = experiment: Intracellular localization / co-localization with transferrin in mGEnC (confocal microscopy); assay type: cell-based, mouse; settings: FIG. 2C
Method: as §1
Conditionally immortalized mouse glomerular endothelial cells (mGEnC) were cultured as previously described (Rops et al. Kidney Int. 2004; 66 (6): 2193-201). […] Subsequently, cells were detached with trypsin/EDTA and analysed by flow cytometry on a FACSCalibur Flow cytometer (BD Biosciences). […] Cells and cryosections were analyzed by confocal laser-Scanning microscopy was performed using a TCS SP5 confocal microscope (Leica Microsystems).

ITLN-1 [4] = biological target: T1, ITLN-1 (Mus musculus, UniProt O88310); experiment: Uptake by mGEnC after downregulation of ITLN-1 with siRNA; assay type: cell-based; settings: peptides at 5 μM, FIG. 2E
T1 construct: ITLN-1 siRNA versus control siRNA
Method: as §2

mGEnC [5] = experiment: Uptake in multiple cell lines (Table 2): mGEnC; assay type: cell-based; settings: fluorescein-labeled peptide, confocal microscopy, mGEnC (mouse)
Method: as §1
as §2, with “Subsequently, cells and cryosections were stained for 1 hour with anti-intelectin-1 (R&D Systems) or anti-LRP-1 (Abcam) antibodies, and after washing incubated for 1 hour with the appropriate Alexa Fluor-labelled secondary antibody (Invitrogen Molecular Probes).” left out

hGEnC = experiment: Uptake in multiple cell lines (Table 2): hGEnC; assay type: cell-based; settings: fluorescein-labeled peptide, confocal microscopy, hGEnC (human)
EOMA = experiment: Uptake in multiple cell lines (Table 2): EOMA; assay type: cell-based; settings: fluorescein-labeled peptide, confocal microscopy, EOMA (mouse)
HUVEC = experiment: Uptake in multiple cell lines (Table 2): HUVEC; assay type: cell-based; settings: fluorescein-labeled peptide, confocal microscopy, HUVEC (human)
Podocytes = experiment: Uptake in multiple cell lines (Table 2): Podocytes; assay type: cell-based; settings: fluorescein-labeled peptide, confocal microscopy, Podocytes (mouse)
Method: as §1
as §2, with “Subsequently, cells and cryosections were stained for 1 hour with anti-intelectin-1 (R&D Systems) or anti-LRP-1 (Abcam) antibodies, and after washing incubated for 1 hour with the appropriate Alexa Fluor-labelled secondary antibody (Invitrogen Molecular Probes).” left out

HeLa = experiment: Uptake in multiple cell lines (Table 2): HeLa; assay type: cell-based; settings: fluorescein-labeled peptide, confocal microscopy, HeLa (human)
Method: as §1
as §2, with “Subsequently, cells and cryosections were stained for 1 hour with anti-intelectin-1 (R&D Systems) or anti-LRP-1 (Abcam) antibodies, and after washing incubated for 1 hour with the appropriate Alexa Fluor-labelled secondary antibody (Invitrogen Molecular Probes).” left out

[6] = Biodistribution of 111In-DOTA-labelled hLF after intravenous injection in healthy mice; assay type: in vivo, C57BI/6 mice; settings: i.v.
Method: Female and male 10-12-weeks-old C57BI/6 mice (Charles River) were injected via the tail vein with 50 μl of 200 μM 111 In-DOTA-labelled hLF peptide. Assuming a blood volume of 1.2 ml this would theoretically result in a concentration of ~8.5 μM in the circulation. Urine, blood and organs were collected 4 hours after injection, and radioactivity was measured in a gamma-counter. The percentage injected dose per gram of tissue (% ID/gram) was calculated for each tissue along with % of the absorbed dose.

[7] = Biodistribution of Cy5.5-hLF in LPS-induced inflammation mouse model; assay type: in vivo, C57BI/6 mice
Method: At the start, 8- to 10-week-old C57BI/6 mice (Charles River) received an intraperitoneal injection with either 100 μl of 2 mg/kg LPS in 5% glucose solution, or only 5% glucose solution. After 24 hours, mice were injected with 50 μl of 200 μM Cy5.5-labelled peptide. Assuming a blood volume of 1.2 ml this would theoretically result in a concentration of ~8.5 μM in the circulation. After 4 hours, organs were perfused with phosphate buffer, followed by 4% PFA. Organs were removed and peptide distribution was analysed using the In Vivo Imaging System (IVIS; Perkin Elmer). Organs were then fixed by overnight incubation in 4% PFA, followed by overnight incubation in 30% sucrose. Subsequently, organs were frozen for analysis by confocal laser-Scanning microscopy using a TCS SP5 confocal microscope (Leica Microsystems). Glomerular and tubular regions were selected in microscopical pictures from which the mean fluorescence intensity was determined by ImageJ software.

[8] = Proteolytic breakdown and serum protein binding of the peptides; assay type: in vitro ADME
[9] = test system: heparan sulphate proteoglycans (HSPGs); settings: HeLa cells, literature; cited from earlier work
ITLN-1 [10] = biological target: T1, ITLN-1; experiment: ITLN-1 protein expression in mGEnC; assay type: cell-based; settings: 10 ng/ml TNFα, FIG. 2B
Method: as §2

[11] = Biodistribution of full-length lactoferrin, lactoferricin and hLF-6 in LPS-challenged mice (IVIS); assay type: in vivo; settings: fluorescent label, i.v., 2 h
Method: Lactoferrin and lactoferricin are cloned in an expression plasmid containing the C-terminal Sortase-sequence protein-LPETG-HHHHHH. LPETGHHHHHH is SEQ ID NO: 98. Next, the protein is expressed overnight in E. coli and purified from sonicated bacterial cell lysates by Ni-NTA beads using 400 mM imidazole to elute the proteins. After overnight dialysis, full-length lactoferrin and hLF-6 are labelled by means of a Sortase exchange reaction on the C-terminus with a fluorescent dye (Alexa647 or Cy5.5) for 2 h at 4 °C using a fluorescently labelled donor peptide (formula:biotin-GSSG-LPETG-label or biotin-GSSG-LPETG-PEG40k-label) as substrate GSSGLPETG is SEQ ID NO: 99. Excess donor peptide is removed by means of streptavidin binding of the biotin tag on the N-terminus of the donor peptide. Next, the purified labelled protein/peptide is injected into LPS-challenged mice via intravenous injection in the tail vein. Mice are sacrificed after 2 h, and organs harvested for imaging by IVIS. Biodistribution is quantified for each organ, and relative distribution is shown.

[12] = test system: proteoglycans on endothelial and epithelial cells; settings: literature; cited from earlier work

T1 sequence (O88310 19-298): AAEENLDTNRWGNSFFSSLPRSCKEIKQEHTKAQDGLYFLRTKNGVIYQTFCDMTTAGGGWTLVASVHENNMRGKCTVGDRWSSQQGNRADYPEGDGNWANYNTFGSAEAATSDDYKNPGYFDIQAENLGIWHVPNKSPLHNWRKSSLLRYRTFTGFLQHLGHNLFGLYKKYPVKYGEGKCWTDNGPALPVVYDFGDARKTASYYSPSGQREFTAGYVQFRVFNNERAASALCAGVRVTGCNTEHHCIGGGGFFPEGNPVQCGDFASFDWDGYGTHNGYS

KCFQWQRNMRKVRGPPVSCIKR [hLF, lactoferrin-derived 22-amino acid peptide]
uptake in mGEnC [1]: much more efficient dose-dependent uptake
uptake in HeLa cells (HeLa cells): show uptake
decrease in uptake after removal of heparan sulphate [2]: ~ 20%
effect of TNFα treatment on uptake (mGEnC treated with TNFα): increased uptake
increase of uptake after TNFα treatment (mGEnC treated with TNFα; 5 μM, FIG. 1E): 50-100%
co-localization with fluorescently-labelled transferrin (mGEnC [3]): co-localized completely
uptake after ITLN-1 siRNA compared to control siRNA (ITLN-1 [4]): reduced uptake
Uptake (Table 2) (mGEnC [5]): High
Uptake (Table 2) (hGEnC): High
Uptake (Table 2) (EOMA): High
Uptake (Table 2) (HUVEC): High
Uptake (Table 2) (Podocytes): High
Uptake (Table 2) (HeLa): High
biodistribution (main organ) ([6]; 111In-DOTA-labelled, 4 hours, FIG. 3A): predominantly located in the kidney
concentration in the blood after 4 hours [6]: < 1%
absorbed dose in kidney and liver combined of total dose in all the organs ([6]; 4 hours): more than 90%
distribution to other organs including intestines, skin and heart, fold lower ([6]; 4 hours): more than 20 fold
distribution to the liver, fold lower than kidney ([6]; 4 hours): approximately 2 fold
kidney targeting, female versus male mice ([6]; 4 hours): No significant differences
peptide concentration in spleen and lungs, fold lower than kidney ([6]; 4 hours): 5-10 fold
signal in spleen, heart, eyes, brain and lymph nodes ([7]; IVIS, LPS-treated and non-treated mice): virtually undetectable
tubular uptake of non-conjugated / free peptide ([7]; i.v. injection in mice): tubular uptake
binding to serum proteins as reason for preferential uptake by mGEnC [8]: not due to a difference in proteolytic breakdown of the peptides before uptake, or a difference in the binding to serum proteins
proteolytic breakdown as reason for preferential uptake by mGEnC ([8]; before uptake): not due to a difference in proteolytic breakdown
dependence of uptake on HSPG [9]: depends on the presence of HSPG

TNFα
ITLN-1 expression after activation (ITLN-1 [10]): augmented ITLN-1 expression

lactoferricin
bio-distribution [11]: accumulation predominantly in liver and spleen and less in kidney, brain and intestine
binding to proteoglycans [12]: bind to proteoglycans on endothelial and epithelial cells
